In patent US20210196738A1, “PHARMACEUTICAL COMPOSITION COMPRISING A COLLOIDAL DISPERSION AND A THERAPEUTIC AGENT AND METHODS AND USES THEREOF” (priority 2017, published 2021):
Where two headings read alike, the source gives them in different places.

Experiments:
[1] = test system: E. coli K-12 MG1655 (DA4201); assay: AgSol-antibiotic synergy screening assay / MIC (Ag/Antibiotic screen); format: cell-based, Escherichia coli; settings: for MIC: Escherichia coli, MG1655, antibiotic alone
Method: (§1) The MIC (Minimal Inhibitory Concentration) of a bacterium to a certain antimicrobial agent gives a quantitative estimate of the susceptibility. MIC is defined as the lowest concentration of antimicrobial agent required to inhibit growth of the organism. The principle is simple: Agar plates, tubes or microtitre trays with two-fold dilutions of antibiotics are inoculated with a standardized inoculum of the bacteria and incubated under standardized conditions following NCCLS guidelines. The next day, the MIC is recorded as the lowest concentration of antimicrobial agent with no visible growth. The MIC informs you about the degree of resistance and might give you important information about the resistance mechanism and the resistance genes involved. MIC-determination performed as agar dilution is regarded as the gold standard for susceptibility testing (Source: Global Salm-Surv—A global Salmonella surveillance and laboratory support project of the World Health Organization (4th Ed. April 2002, modified November 2010))
(§2) The Minimum Inhibitory Concentration (MIC) of nanosilver (silver) was determined by two-fold dilution series in NaCl free Nutrient Broth (Sigma-Aldrich) in 15 ml screw cap tubes. The tubes were incubated in the dark over night at 37° C. without shaking. The MIC was determined as the lowest concentration of nanosilver (silver) at which no visible growth was observed.
(§3) Antibiotic stock solutions were serially diluted in 2-fold steps in pre-warmed (37° C.) nutrient broth (NB) to prepare an antibiotic concentration gradient above and below the minimal inhibitory concentration (MIC) of antibiotic (Table 4). 50 μl of prepared dilutions were aliquoted into a 96-well round bottom plate (Nunc, Thermo Fisher) for the screening assay.
(§4) Silver formulation (AgSol1000 (particles with 19 Ag per silica particle), AgSol300 (particles with 6 Ag per silica particle, AgNO3), aluminum coated silica beads (159/500 (silica particles with aluminium silicate coating)) and uncoated silica beads (15/500) were diluted in pre-warmed (37° C.) NB. Bindzil®15/500 is an unmodified silica sol, whereas Bindzil®159/500 is a aluminosilicate modified silica sol. Bindzil® is sold by Akzo Nobel AB.
(§5) 40 μl of the prepared dilutions were added to the 96-well plate containing antibiotic gradient to reach the final silver concentration of ¼×MICAgSol (silver) (specific for the microorganism used) (Table 5).
(§6) Overnight (16-20 h) cultures of 3 biological replicates of the following microorganisms E. coli K-12 MG1655 (DA4201), E. coli K-12 MG1655 rpsL K42N (DA49828), Pseudomonas aeruginosa PAO1 (DA6215) or Staphylococcus aureus USA300 JE2 (DA28823) were grown in NB till saturation (37° C. incubator with 190 rpm shaking). Cultures were diluted in NB to 10^7 CFU/ml and 10 μl of the dilution were added to the 96-well plate containing antibiotic gradient and silver formulations or the bead controls to reach the final concentration of 10^5 CFU/well in 100 μl total volume per well. 3 technical replicates (3 wells) of specific antibiotic concentration in combination with silver and microorganism were used. A control plate containing bacterial cells mixed with only antibiotic gradient was always included too.
(§7) The prepared plate was incubated in 37° C. incubator without shaking in the dark for 16-20 h and the optical density (OD620) of each well was measured in plate reader Multiscan FC (Thermo Fisher).

[2] = test system: E. coli K-12 MG1655 rpsL K42N (DA49828); assay: AgSol-antibiotic synergy screening assay / MIC; format: cell-based; settings: Escherichia coli
Method: as §1, §2, §3, §4, §5, §6, §7

[3] = test system: S. enterica Typhimurium LT2; assay: AgSol-antibiotic synergy screening assay; format: cell-based, Salmonella enterica; settings: Salmonella; FIGS. 2A-2F
Method: as §3, §4, §5, §7

[H]/N=C(/N)N[C@H]1[C@H](O)[C@@H](O)[C@H](O[C@@H]2O[C@@H](C)[C@](O)(C=O)[C@H]2O[C@@H]2O[C@@H](CO)[C@H](O)[C@@H](O)[C@@H]2NC)[C@@H](N/C(N)=N\[H])[C@@H]1O [Streptomycin]
MIC ([1]; E. coli (DA4201), values used for antibiotic gradient, read-out: MIC): 0.5 µg/mL | MIC ([1]; nutrient broth, read-out: Antibiotic MIC, NB): 0.5 µg/mL | fold increase in effect with AgSol vs antibiotic alone ([1]; Table 6, E. coli): 17 fold | Antibiotic MIC, NB + AgSol1000 ([1]; antibiotic in combination with AgSol1000 at ¼ × MIC silver, nutrient broth): 0.03 µg/mL | Fold change (antibiotic MIC, NB vs NB + AgSol1000) ([1]; dash = MIC unchanged): 17x | synergistic antibacterial effect of antibiotic in combination with AgSol ([1]; vs antibiotic alone, E. coli MG 1655 K-12): markedly improved synergistic effect | MIC [2]: 2000 µg/mL | synergetic effect of antibiotic in combination with silver [3]: stronger synergetic effect
